From ChEMBL document CHEMBL1142747, “Prostatic acid phosphatase in cloacal derivatives” (Bioorg Med Chem Lett, 2005)

Key:
[1] = Half life of ECA-ATL in serum; assay type: ADME, cell-free; conditions: human
[2] = Half life of ECA-ATL in buffer at pH 7.4; assay type: ADME

Row | Compound | half-life [1] | half-life [2]
1 | C=C(CC)C(=O)c1ccc(OCC(=O)OC(CNC(C)C)COc2ccc(CC(N)=O)cc2)c(Cl)c1Cl (stereo not drawn) | 0.5 h | 14 h
2 | C=C(CC)C(=O)c1ccc(OCC(=O)OCCOCCOCCOCCOCCOCCO)c(Cl)c1Cl | < 0.0333 h | 120 h
3 | C=C(CC)C(=O)c1ccc(OCC(=O)OCCOCCO)c(Cl)c1Cl | < 0.0333 h | 110 h
4 | C=C(CC)C(=O)c1ccc(OCC(=O)OCCOCCOCCOCCO)c(Cl)c1Cl | < 0.0333 h | 130 h
